Data from patent US8143403B2 (Bristol-Myers Squibb Company, priority 2008, dated 2012).

Target: T1, CGRP receptors (SK-N-MC cell membranes) (Homo sapiens, UniProt O60894+Q16602)
T1 construct: Crude membranes were prepared from SK-N-MC cells expressing CGRP receptors; endogenous in cells; host or cells: SK-N-MC cells (crude membranes)
Assay: Saturation/Scatchard analysis of [125I]-CGRP binding to SK-N-MC cell membranes
Procedure: FIG. 1. [^125I]-CGRP Saturation/Scatchard Analysis. [^125I]-CGRP saturation using SK-N-MC membranes in the absence (filled squares) and presence (all others) of CGRP antagonist example 20. Inset depicts a Scatchard plot of same data.
Saturation/Scatchard Analysis. The nature of the interaction between the human CGRP peptide and example 20 was studied in detail using saturation binding experiments. The binding of increasing concentrations of [^125I]-CGRP to SK-N-MC cell membranes was measured in the absence (control condition) and in the presence of 300 pM and 600 pM example 20. Saturation data were analyzed using a one site binding equation to estimate apparent equilibrium dissociation constant (Kd) and the maximum number of binding sites (Bmax) (Prizm v4.0, Graphpad). The impact of the addition of example 20 to the binding parameters (Kd, Bmax) of [^125I]-CGRP binding was measured and compared. […] Example 20 was evaluated in 3 separate experiments (for representative dataset, see FIG. 1. [^125I]-CGRP Saturation/Scatchard Analysis). Functional Antagonism/Schild analysis. Agonist stimulation of CGRP receptor complex leads to cyclic AMP (adenosine 3′5′-cyclic monophosphate) production via Gs-dependent activation of an adenylate cyclase (Juaneda C et al., TiPS, 2000; 21:432-438). Consequently, CGRP receptor antagonists inhibit CGRP-induced cyclic AMP formation in SK-N-MC cells which natively express the CGRP receptor complex (Doods H et al., Br J Pharmacol, 2000; 129(3):420-423). Example 20 was evaluated for its ability to block CGRP induced cAMP formation using a commercially available cAMP HTRF kit (catalog number 62AM2PEC, CisBio International). […] The cells were lysed with lysis reagent and cAMP concentrations were determined by HTRF according to the manufacturer's instructions. A standard curve using known quantities of cAMP was evaluated in parallel to allow conversion of HTRF ratio to nM cAMP. The resulting curves were then evaluated using a Gaddum/Schild equation individually and with global fitting (Prizm v4.0, Graphpad). […]

T1 sequence (Q16602 23-461): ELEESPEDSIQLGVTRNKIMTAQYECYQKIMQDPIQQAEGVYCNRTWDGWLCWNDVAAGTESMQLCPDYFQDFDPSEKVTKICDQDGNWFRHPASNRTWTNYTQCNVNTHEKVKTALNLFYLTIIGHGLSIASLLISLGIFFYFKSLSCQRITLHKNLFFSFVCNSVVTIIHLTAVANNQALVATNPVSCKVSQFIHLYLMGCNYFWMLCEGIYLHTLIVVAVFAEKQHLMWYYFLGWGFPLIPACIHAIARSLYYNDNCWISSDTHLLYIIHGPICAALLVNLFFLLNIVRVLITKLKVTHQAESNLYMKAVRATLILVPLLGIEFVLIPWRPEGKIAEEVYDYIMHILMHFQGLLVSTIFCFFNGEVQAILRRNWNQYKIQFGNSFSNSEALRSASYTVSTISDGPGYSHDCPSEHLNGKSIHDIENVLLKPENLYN
T1 sequence (O60894 27-148): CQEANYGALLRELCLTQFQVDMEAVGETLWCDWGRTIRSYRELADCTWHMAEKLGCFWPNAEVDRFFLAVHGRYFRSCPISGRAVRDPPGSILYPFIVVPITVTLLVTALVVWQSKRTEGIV

O=C(O[C@@H]1CC[C@@H](c2cccc(F)c2F)Cc2cccnc21)N1CCC(n2c(=O)[nH]c3ncccc32)CC1 [Example 20]
effect on maximum binding sites of [125I]-CGRP binding (Bmax) (300 pM and 600 pM example 20 vs control): without significantly changing the maximum binding sites
effect on Kd of [125I]-CGRP binding (300 pM and 600 pM example 20 vs control, 3 experiments): dose-dependently increased the Kd
mechanism of inhibition of [125I]-CGRP binding (saturation binding): competitive mechanism of inhibition
